In patent publication US20070249526A1, “PROCESS FOR THE PREPARATION OF CYCLIC PEPTIDES” (priority 2003, published 2007):

Key:
physchem = assay type: physicochemical
Method: The crude product of Example 15 was purified by prep HPLC using 0.5% AcOH in water and 0.5% AcOH in 90% ACN in water as buffers. The crude product was purified in a gradient program and major fraction was collected. After lyophilization, it gave a white powder which failed the solubility test at 10 mg/ml. ^19F NMR confirmed that there were still two TFA salts in the formula (FIG. 1). This product was repurified on the prepHPLC once more, the major fraction was collected and lyophilized to give 3D53. 12 mg of this product dissolved in 1 ml water gave a clear solution.

human C5a receptor [1] = target: T1, human C5a receptor (Homo sapiens, UniProt P21730); settings: literature refs 6-9; cited from earlier work
T1 construct: host or cells: human cells; neutrophils, macrophages, polymorphonuclear leukocytes
T1 sequence (P21730 1-350): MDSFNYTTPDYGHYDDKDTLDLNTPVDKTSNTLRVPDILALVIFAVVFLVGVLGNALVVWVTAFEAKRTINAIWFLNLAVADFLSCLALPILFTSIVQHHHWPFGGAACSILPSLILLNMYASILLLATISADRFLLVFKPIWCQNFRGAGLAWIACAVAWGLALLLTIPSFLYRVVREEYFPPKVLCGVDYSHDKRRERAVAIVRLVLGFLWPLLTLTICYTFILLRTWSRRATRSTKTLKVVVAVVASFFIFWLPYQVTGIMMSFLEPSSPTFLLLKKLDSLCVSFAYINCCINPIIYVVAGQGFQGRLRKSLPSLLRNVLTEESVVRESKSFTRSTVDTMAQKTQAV

[2] = tested on: rat models of human disease; settings: literature refs 10-15; cited from earlier work
human C5a receptor [3] = target: T1, human C5a receptor; settings: literature refs 6-9; cited from earlier work; remark: listed apart in the source

In the case of `CC(=O)N[C@@H](Cc1ccccc1)C(=O)N[C@H]1CCCNC(=O)[C@H](CCCNC(=N)N)NC(=O)C(Cc2c[nH]c3ccccc23)NC(=O)[C@@H](CC2CCCCC2)NC(=O)C2CCCN2C1=O` (stereo partly drawn) [Compound 1, Ac-Phe[Orn-Pro-D-Cha-Trp-Arg]], the solubility (physchem) is given as under 10 mg/mL, the “amount dissolved giving a clear solution” value (physchem; in 1 ml water, product repurified by prepHPLC, no TFA salt by 19F NMR) is given as at least 12 mg and the “inhibition in vitro of C5a binding to human cells” value (human C5a receptor [1]) is given as “potent inhibition”. For the same compound, the “inhibition in vivo in rat models of human disease” value [2] was “potent inhibition” and the “inhibition in vitro of C5a-mediated activation of neutrophils and macrophages, chemotaxis, and cytokine release” value (human C5a receptor [3]) was “potent inhibition”.
